Laboratory results reported in patent US20250163104A1, “MACROCYCLIC IMMUNOMODULATORS” (priority 2021, published 2025).
Where a SMILES comes first, the peptide text is derived from it. Bridges are numbered along the chain shown (N, C = ends). [ ]: non-standard residue; d: D form. The star is where a group is joined. Phe(3-Ph) = N[C@@H](Cc1cccc(-c2ccccc2)c1)C(=O)O; Phe(4-COOH) = N[C@@H](Cc1ccc(C(=O)O)cc1)C(=O)O; Bip = N[C@@H](Cc1ccc(-c2ccccc2)cc1)C(=O)O; Phe(3-Me) = Cc1cccc(C[C@H](N)C(=O)O)c1; aIle = CC[C@@H](C)[C@H](N)C(=O)O; 3Pal = N[C@@H](Cc1cccnc1)C(=O)O; 4Pal = N[C@@H](Cc1ccncc1)C(=O)O; Cha = N[C@@H](CC1CCCCC1)C(=O)O; Cit = NC(=O)NCCC[C@H](N)C(=O)O; Carboxymethyl = O=C(O)C*; Orn = NCCC[C@H](N)C(=O)O; Dab = NCC[C@H](N)C(=O)O; Dap = NC[C@H](N)C(=O)O

target: T1, human PD-1 / PD-L1-Ig binding on Jurkat cell line over-expressing human PD-1 (Jurkat-PD-1) (Homo sapiens, UniProt Q15116); test: Jurkat-PD-1 Cell Binding High-Content Screening Assay (CBA); format: cell-based; details: Jurkat-PD-1 cells, PE-labeled PD-L1-Ig 20 nM final; read-out: Jurkat HPD1_PDL1 IC50
T1 construct: expressed in transfected cells; host or cells: Jurkat
T1 sequence (Q15116 25-288): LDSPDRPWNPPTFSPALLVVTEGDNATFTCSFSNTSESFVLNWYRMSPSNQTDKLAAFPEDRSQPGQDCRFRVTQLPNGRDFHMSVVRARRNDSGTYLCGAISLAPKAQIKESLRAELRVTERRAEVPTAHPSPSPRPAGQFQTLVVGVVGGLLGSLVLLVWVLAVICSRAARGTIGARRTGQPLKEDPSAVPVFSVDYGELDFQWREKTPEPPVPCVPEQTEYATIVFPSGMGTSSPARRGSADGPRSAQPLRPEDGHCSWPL
Outline: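 Compounds were preincubated with Jurkat-hPD-1 cells in DMEM plus 10% fetal calf serum for 2 h at 37° C. Phycoerythrin-labeled PD-L1-Ig (20 nM final) was then added for 1 hour. Cells were fixed in 4% paraformaldehyde with Hoechst 33342, and bound fluorescence was quantified by high-content imaging.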

Structure (SMILES) | IC50
CC(C)C[C@H]1NC(=O)[C@H](CN)NC(=O)[C@H](C(C)C)NC(=O)[C@H](Cc2ccc(-c3ccccc3)cc2)NC(=O)[C@H](C(C)C)NC(=O)[C@H](Cc2c[nH]c3ccccc23)NC(=O)[C@H](CC(=O)O)NC(=O)[C@H](Cc2ccncc2)NC(=O)[C@H](CN)NC(=O)CSC[C@@H](C(=O)NCC(N)=O)NC(=O)[C@H](CO)NC(=O)[C@H](C(C)C)NC(=O)[C@H](CC2CCCCC2)NC(=O)[C@H](CC(N)=O)NC1=O [Compound 1651] ({CH2CO}-[Dap][4Pal]DWV[Bip]V[Dap][dL]N[Cha]VSCG-NH2; thioether N-14) | 17.4 nM
CC(C)C[C@H]1NC(=O)[C@H](CN)NC(=O)[C@H](C(C)C)NC(=O)[C@H](Cc2ccc(-c3ccccc3)cc2)NC(=O)[C@H](C(C)C)NC(=O)[C@H](Cc2c[nH]c3ccccc23)NC(=O)[C@H](CC(=O)O)NC(=O)[C@H](Cc2ccc(OCC(=O)O)cc2)NC(=O)[C@H](CN)NC(=O)CSC[C@@H](C(=O)NCC(N)=O)NC(=O)[C@H](CO)NC(=O)[C@H](C(C)C)NC(=O)[C@H](CC2CCCCC2)NC(=O)[C@H](CC(N)=O)NC1=O [Compound 1652] ({CH2CO}-[Dap]Y(Carboxymethyl)DWV[Bip]V[Dap][dL]N[Cha]VSCG-NH2; thioether N-14) | 20.3 nM
Cc1cccc(C[C@@H]2NC(=O)[C@H](CC(=O)O)NC(=O)[C@H](Cc3ccncc3)NC(=O)[C@H](CN)NC(=O)CSC[C@@H](C(N)=O)NC(=O)[C@H]([C@@H](C)O)NC(=O)[C@H](C(C)C)NC(=O)[C@H](CC(C)C)NC(=O)[C@H](CCN)NC(=O)[C@@H](CC(C)C)NC(=O)[C@H](CCCN)NC(=O)[C@H](CCCNC(N)=O)NC(=O)[C@H](Cc3cccc(-c4ccccc4)c3)NC(=O)[C@H](C(C)C)NC2=O)c1 [Compound 1654] ({CH2CO}-[Dap][4Pal]D[Phe(3-Me)]V[Phe(3-Ph)][Cit][Orn][dL][Dab]LVTC-NH2; thioether N-14) | 124 nM
CC[C@@H](C)[C@@H]1NC(=O)[C@H](Cc2ccc(-c3ccccc3)cc2)NC(=O)[C@H](C(C)C)NC(=O)[C@H](Cc2cccc(C)c2)NC(=O)[C@H](CC(=O)O)NC(=O)[C@H](Cc2ccc(O)cc2)NC(=O)[C@H](CC(N)=O)NC(=O)CSC[C@@H](C(N)=O)NC(=O)[C@H]([C@@H](C)O)NC(=O)[C@H](C(C)C)NC(=O)[C@H](CC(C)C)NC(=O)[C@H](CCN)NC(=O)[C@@H](CC(C)C)NC(=O)[C@H](CCCN)NC1=O [Compound 1657] ({CH2CO}-NYD[Phe(3-Me)]V[Bip][aIle][Orn][dL][Dab]LVTC-NH2; thioether N-14) | 59.9 nM
CC[C@H](C)[C@@H]1NC(=O)[C@H](Cc2ccc(-c3ccccc3)cc2)NC(=O)[C@H](C(C)C)NC(=O)[C@H](Cc2c[nH]c3ccccc23)NC(=O)[C@H](CC(=O)O)NC(=O)[C@H](Cc2ccc(OCC(=O)O)cc2)NC(=O)[C@H](CN)NC(=O)CSC[C@@H](C(=O)N[C@@H](C)C(N)=O)NC(=O)[C@H]([C@@H](C)O)NC(=O)[C@H](C(C)C)NC(=O)[C@H](Cc2ccccc2)NC(=O)[C@H](CCN)NC(=O)[C@@H](CC(C)C)NC(=O)[C@H](CCCN)NC1=O [Compound 1658] ({CH2CO}-[Dap]Y(Carboxymethyl)DWV[Bip]I[Orn][dL][Dab]FVTCA-NH2; thioether N-14) | 19.5 nM
CC[C@H](C)[C@@H]1NC(=O)[C@H](Cc2ccc(-c3ccccc3)cc2)NC(=O)[C@H](C(C)C)NC(=O)[C@H](Cc2c[nH]c3ccccc23)NC(=O)[C@H](CC(=O)O)NC(=O)[C@H](Cc2ccc(C(=O)O)cc2)NC(=O)[C@H](Cc2ccc(OCC(=O)O)cc2)NC(=O)CSC[C@@H](C(=O)N[C@@H](C)C(N)=O)NC(=O)[C@H]([C@@H](C)O)NC(=O)[C@H](C(C)C)NC(=O)[C@H](Cc2ccccc2)NC(=O)[C@H](CCN)NC(=O)[C@@H](CC(C)C)NC(=O)[C@H](CCCN)NC1=O [Compound 1659] ({CH2CO}-Y(Carboxymethyl)[Phe(4-COOH)]DWV[Bip]I[Orn][dL][Dab]FVTCA-NH2; thioether N-14) | 9.1 nM
CC[C@H](C)[C@@H]1NC(=O)[C@H](Cc2ccc(-c3ccccc3)cc2)NC(=O)[C@H](C(C)C)NC(=O)[C@H](Cc2c[nH]c3ccccc23)NC(=O)[C@H](CC(=O)O)NC(=O)[C@H](Cc2ccc(OCC(=O)O)cc2)NC(=O)[C@H](Cc2ccc(OCC(=O)O)cc2)NC(=O)CSC[C@@H](C(=O)N[C@@H](C)C(N)=O)NC(=O)[C@H]([C@@H](C)O)NC(=O)[C@H](C(C)C)NC(=O)[C@H](Cc2ccccc2)NC(=O)[C@H](CCN)NC(=O)[C@@H](CC(C)C)NC(=O)[C@H](CCCN)NC1=O [Compound 1660] ({CH2CO}-Y(Carboxymethyl)Y(Carboxymethyl)DWV[Bip]I[Orn][dL][Dab]FVTCA-NH2; thioether N-14) | 20.6 nM
CC(C)C[C@H]1NC(=O)[C@H](CCCN)NC(=O)[C@H](C(C)C)NC(=O)[C@H](Cc2ccc(-c3ccccc3)cc2)NC(=O)[C@H](C(C)C)NC(=O)[C@H](Cc2c[nH]c3ccccc23)NC(=O)[C@H](CC(=O)O)NC(=O)[C@H](Cc2ccc(OCC(=O)O)cc2)NC(=O)[C@H](CN)NC(=O)CSC[C@@H](C(=O)N[C@@H](C)C(N)=O)NC(=O)[C@H]([C@@H](C)O)NC(=O)[C@H](C(C)C)NC(=O)[C@H](Cc2ccccc2)NC(=O)[C@H](CCN)NC1=O [Compound 1661] ({CH2CO}-[Dap]Y(Carboxymethyl)DWV[Bip]V[Orn][dL][Dab]FVTCA-NH2; thioether N-14) | 17 nM
CC(C)C[C@H]1NC(=O)[C@H](CCCN)NC(=O)[C@H](C(C)C)NC(=O)[C@H](Cc2ccc(-c3ccccc3)cc2)NC(=O)[C@H](C(C)C)NC(=O)[C@H](Cc2c[nH]c3ccccc23)NC(=O)[C@H](CC(=O)O)NC(=O)[C@H](Cc2ccc(C(=O)O)cc2)NC(=O)[C@H](Cc2ccc(OCC(=O)O)cc2)NC(=O)CSC[C@@H](C(=O)N[C@@H](C)C(N)=O)NC(=O)[C@H]([C@@H](C)O)NC(=O)[C@H](C(C)C)NC(=O)[C@H](Cc2ccccc2)NC(=O)[C@H](CCN)NC1=O [Compound 1662] ({CH2CO}-Y(Carboxymethyl)[Phe(4-COOH)]DWV[Bip]V[Orn][dL][Dab]FVTCA-NH2; thioether N-14) | 27.4 nM
CC(C)C[C@H]1NC(=O)[C@H](CCCN)NC(=O)[C@H](C(C)C)NC(=O)[C@H](Cc2ccc(-c3ccccc3)cc2)NC(=O)[C@H](C(C)C)NC(=O)[C@H](Cc2c[nH]c3ccccc23)NC(=O)[C@H](CC(=O)O)NC(=O)[C@H](Cc2ccc(OCC(=O)O)cc2)NC(=O)[C@H](Cc2ccc(OCC(=O)O)cc2)NC(=O)CSC[C@@H](C(=O)N[C@@H](C)C(N)=O)NC(=O)[C@H]([C@@H](C)O)NC(=O)[C@H](C(C)C)NC(=O)[C@H](Cc2ccccc2)NC(=O)[C@H](CCN)NC1=O [Compound 1663] ({CH2CO}-Y(Carboxymethyl)Y(Carboxymethyl)DWV[Bip]V[Orn][dL][Dab]FVTCA-NH2; thioether N-14) | 11.1 nM

Results, then the compound that gave them:

IC50 | Structure (SMILES)
34.5 nM | Cc1cccc(C[C@@H]2NC(=O)[C@H](CC(=O)O)NC(=O)[C@H](Cc3ccc(OCC(=O)O)cc3)NC(=O)[C@H](Cc3ccc(OCC(=O)O)cc3)NC(=O)CSC[C@@H](C(N)=O)NC(=O)[C@H](CO)NC(=O)[C@H](C(C)C)NC(=O)[C@H](CC(C)C)NC(=O)[C@H](CCN)NC(=O)[C@@H](CC(C)C)NC(=O)[C@H](CCCN)NC(=O)[C@H](C(C)C)NC(=O)[C@H](Cc3ccc(-c4ccccc4)cc3)NC(=O)[C@H](CC(C)C)NC2=O)c1 [Compound 1649] ({CH2CO}-Y(Carboxymethyl)Y(Carboxymethyl)D[Phe(3-Me)]L[Bip]V[Orn][dL][Dab]LVSC-NH2; thioether N-14)
24.2 nM | Cc1cccc(C[C@@H]2NC(=O)[C@H](CC(=O)O)NC(=O)[C@H](Cc3ccc(OCC(=O)O)cc3)NC(=O)[C@H](Cc3ccc(OCC(=O)O)cc3)NC(=O)CSC[C@@H](C(=O)NCC(N)=O)NC(=O)[C@H](CO)NC(=O)[C@H](C(C)C)NC(=O)[C@H](CC3CCCCC3)NC(=O)[C@H](CCN)NC(=O)[C@@H](CC(C)C)NC(=O)[C@H](CCCN)NC(=O)[C@H](C(C)C)NC(=O)[C@H](Cc3ccc(-c4ccccc4)cc3)NC(=O)[C@H](CC(C)C)NC2=O)c1 [Compound 1650] ({CH2CO}-Y(Carboxymethyl)Y(Carboxymethyl)D[Phe(3-Me)]L[Bip]V[Orn][dL][Dab][Cha]VSCG-NH2; thioether N-14)
33.5 nM | CC[C@@H](C)[C@@H]1NC(=O)[C@H](Cc2ccc(-c3ccccc3)cc2)NC(=O)[C@H](CC(C)C)NC(=O)[C@H](Cc2cccc(C)c2)NC(=O)[C@H](CC(=O)O)NC(=O)[C@H](Cc2ccc(OCC(=O)O)cc2)NC(=O)[C@H](Cc2ccc(OCC(=O)O)cc2)NC(=O)CSC[C@@H](C(N)=O)NC(=O)[C@H](CO)NC(=O)[C@H](C(C)C)NC(=O)[C@H](CC(C)C)NC(=O)[C@H](CCN)NC(=O)[C@@H](CC(C)C)NC(=O)[C@H](CCCN)NC1=O [Compound 1653] ({CH2CO}-Y(Carboxymethyl)Y(Carboxymethyl)D[Phe(3-Me)]L[Bip][aIle][Orn][dL][Dab]LVSC-NH2; thioether N-14)
280 nM | Cc1cccc(C[C@@H]2NC(=O)[C@H](CC(=O)O)NC(=O)[C@H](Cc3ccc(OCC(=O)O)cc3)NC(=O)[C@H](Cc3cccnc3)NC(=O)CSC[C@@H](C(N)=O)NC(=O)[C@H]([C@@H](C)O)NC(=O)[C@H](C(C)C)NC(=O)[C@H](CC(C)C)NC(=O)[C@H](CCN)NC(=O)[C@@H](CC(C)C)NC(=O)[C@H](CCCN)NC(=O)[C@H](CCCNC(N)=O)NC(=O)[C@H](Cc3ccc(-c4ccccc4)cc3)NC(=O)[C@H](C(C)C)NC2=O)c1 [Compound 1655] ({CH2CO}-[3Pal]Y(Carboxymethyl)D[Phe(3-Me)]V[Bip][Cit][Orn][dL][Dab]LVTC-NH2; thioether N-14)
36.4 nM | Cc1cccc(C[C@@H]2NC(=O)[C@H](CC(=O)O)NC(=O)[C@H](Cc3ccc(OCC(=O)O)cc3)NC(=O)[C@H](Cc3ccc(OCC(=O)O)cc3)NC(=O)CSC[C@@H](C(N)=O)NC(=O)[C@H](CO)NC(=O)[C@H](C(C)C)NC(=O)[C@H](CC(C)C)NC(=O)[C@H](CCN)NC(=O)[C@@H](CC(C)C)NC(=O)[C@H](CCCN)NC(=O)[C@H](CCCNC(N)=O)NC(=O)[C@H](Cc3ccc(-c4ccccc4)cc3)NC(=O)[C@H](CC(C)C)NC2=O)c1 [Compound 1656] ({CH2CO}-Y(Carboxymethyl)Y(Carboxymethyl)D[Phe(3-Me)]L[Bip][Cit][Orn][dL][Dab]LVSC-NH2; thioether N-14)
